Test system: Caucasian patients with schizophrenia (CATIE)
Test: Genetic association (linear regression, additive model) of SNP alleles with MMRM-modelled change in PANSS Total Score under antipsychotic treatment, CATIE trial
Type: in vivo, human
Protocol: For the CATIE study, individual cases were diagnosed as having SZ based on DSM-III/IV criteria. Treatment response for all patients was assessed using the Positive and Negative Syndrome Scale (PANSS) (Kay et al., 1987; Kay et al., 1989; Leucht et al., 2005). […] To avoid possible bias in post hoc selection of a treatment response variable, the inventors used the mixed model repeated measures (MMRM) approach developed by van den Oord and coworkers (van den Oord et al., 2009). […] The design of the CATIE study, including details of consent for genetic analyses, has been described in detail by others (Lieberman et al., 2005; Stroup et al., 2003; Sullivan et al., 2008). Only retrospective genetic analyses, judged to be exempt from human studies requirements by an IRB, were conducted in the current study. Consented DNA samples were obtained from the Rutgers University Cell and DNA Repository in collaboration with […]. […] All of these patients self-reported as having exclusively European ancestry. […] Genotyping was performed on a fee for service basis according to Illumina's standard operating procedures. Raw intensity files were processed using Illumina® BeadStudio version 1.7.4 software. […] Only two of these had been previously genotyped in the CATIE sample. […] To allow comparison to previously published PGx findings for CATIE and to avoid possible bias in post-hoc selection of a treatment response variable, the inventors used the mixed model repeated measures (MMRM) approach developed by Van den Oord and coworkers (van den Oord et al., 2009; […] et al., 2011). Briefly, this method models random effects by introducing random slopes for treatment effects, allowing treatment effects to be different across subjects. The MMRM approach serves to increase the statistical power to detect genetic associations by increasing the precision in measuring change in PANSS Total Score (PANSS-T) by accounting for variance due to baseline PANSS-T, and treatment, as well as smoothing out the random fluctuations in PANSS-T between visits due to various uncontrolled variables. […] Bozeman, Mont.). Quantile-Quantile (QQ) plots were prepared using the R statistical package version 2.14.1. For comparison purposes, original CATIE-provided SNP genotypes in specific genes were evaluated using the same genetic analysis. Haplotype association integrating newly generated and original genotypes for specific regions was carried out in SVS using haplotype blocks predefined by Haploview software. […] For each of the SNPs listed the reference SNP (rs) number is provided, which provides the known sequence context for the given SNP (see, e.g., National Center for Biotechnology Information (NCBI) SNP database available on the world wide web at ncbi.nlm.nih.gov/snp).

Cc1cc2c(s1)Nc1ccccc1N=C2N1CCN(C)CC1 [Olanzapine, olanzapine]
Beta (PANSS) (ADAMTS9-AS2 rs17071651 allele C): −3.03 PANSS
Beta (PANSS) (AGAP1 rs4663220 allele T): −3.07 PANSS
Beta (PANSS) (ANK3 rs2893823 allele A): −4.47 PANSS
Beta (PANSS) (ANK3 rs10821660 allele G): −4.45 PANSS
Beta (PANSS) (APCDD1 rs1045584 allele G): −3.41 PANSS
Beta (PANSS) (ARHGAP31 rs751607 allele A): −4.30 PANSS
Beta (PANSS) (ARVCF rs2238794 allele C): −3.11 PANSS
Beta (PANSS) (ATP10A rs2291351 allele A): −4.99 PANSS
Beta (PANSS) (BIK rs5996274 allele A): −4.94 PANSS
Beta (PANSS) (CA10 rs741682 allele A): −5.58 PANSS
Beta (PANSS) (CACNA1B rs12352971 allele G): −4.21 PANSS
Beta (PANSS) (CACNG4 rs7219571 allele A): −5.84 PANSS
Beta (PANSS) (CAMK2D rs13113625 allele C): −3.68 PANSS
Beta (PANSS) (CDH13 rs3743621 allele C): −5.54 PANSS
Beta (PANSS) (CLIC5 rs35822882 allele G): −14.90 PANSS
Beta (PANSS) (CNTN4 rs1554561 allele T): −4.50 PANSS
Beta (PANSS) (CNTN4 rs4685501 allele T): −4.63 PANSS
Beta (PANSS) (CPNE5 rs12194367 allele T): −3.14 PANSS
Beta (PANSS) (CSMD1 rs2724972 allele G): −4.69 PANSS
Beta (PANSS) (CSMD1 rs7815861 allele C): −5.06 PANSS
Beta (PANSS) (DLGAP1 rs498419 allele A): −3.07 PANSS
Beta (PANSS) (DLGAP1 rs561434 allele A): −4.43 PANSS
Beta (PANSS) (EHD4 rs1048166 allele C): −3.04 PANSS
Beta (PANSS) (EHD4 rs1048175 allele C): −3.04 PANSS
Beta (PANSS) (EML1 rs34198557 allele C): −4.01 PANSS
Beta (PANSS) (ERBB4 rs7565257 allele A): −3.44 PANSS
Beta (PANSS) (ERG rs9981408 allele G): −3.15 PANSS
Beta (PANSS) (EXOC2 rs9405889 allele C): −3.21 PANSS
Beta (PANSS) (FAM170A rs2162856 allele A): −3.06 PANSS
Beta (PANSS) (FAM173B rs12652786 allele C): −3.39 PANSS
Beta (PANSS) (FBN3 rs2287937 allele C): −5.34 PANSS
Beta (PANSS) (FGF14 rs2390674 allele A): −4.22 PANSS
Beta (PANSS) (FHIT rs971866 allele A): −5.07 PANSS
Beta (PANSS) (FMNL2 rs4664113 allele C): −4.25 PANSS
Beta (PANSS) (FSTL5 rs13127909 allele C): −4.60 PANSS
Beta (PANSS) (GAN rs1345895 allele A): −3.53 PANSS
Beta (PANSS) (GAS7 rs9904524 allele G): −4.96 PANSS
Beta (PANSS) (GPC6 rs9301876 allele A): −4.68 PANSS
Beta (PANSS) (GRM8 rs17865066 allele A): −7.97 PANSS
Beta (PANSS) (GRM8 rs17865434 allele C): −7.97 PANSS
Beta (PANSS) (HTR1B rs11568817 allele G): −3.16 PANSS
Beta (PANSS) (IFT74 rs4463511 allele C): −3.77 PANSS
Beta (PANSS) (IL1RAP rs2361835 allele A): −3.93 PANSS
Beta (PANSS) (IL1RAP rs7642607 allele A): −3.93 PANSS
Beta (PANSS) (IL1RAP rs7642797 allele A): −3.93 PANSS
Beta (PANSS) (IL15 rs3806798 allele A): −4.33 PANSS
Beta (PANSS) (ITPR1 rs11717244 allele C): −3.53 PANSS
Beta (PANSS) (JPH2 rs2064381 allele A): −3.06 PANSS
Beta (PANSS) (KAZN rs12130605 allele C): −3.66 PANSS
Beta (PANSS) (KCND2 rs718805 allele A): −5.26 PANSS
Beta (PANSS) (KCND2 rs10953911 allele G): −5.26 PANSS
Beta (PANSS) (KCND2 rs11765060 allele C): −5.30 PANSS
Beta (PANSS) (KCNH1 rs4282878 allele C): −3.08 PANSS
Beta (PANSS) (KDM4C rs35389625 allele C): −11.20 PANSS
Beta (PANSS) (KITLG rs995029 allele C): −7.22 PANSS
Beta (PANSS) (LDB2 rs872478 allele C): −3.53 PANSS
Beta (PANSS) (LRP1B rs4591293 allele A): −3.04 PANSS
Beta (PANSS) (MACROD2 rs461651 allele A): −3.59 PANSS
Beta (PANSS) (MACROD2 rs6079429 allele A): −4.72 PANSS
Beta (PANSS) (MAGI2 rs848813 allele C): −4.34 PANSS
Beta (PANSS) (MAGI2 rs12705833 allele G): −2.87 PANSS
Beta (PANSS) (MCPH1 rs930557 allele C): −3.78 PANSS
Beta (PANSS) (MEPE rs3749575 allele A): −8.95 PANSS
Beta (PANSS) (MTIF3 rs12585587 allele A): −4.37 PANSS
Beta (PANSS) (NAB1 rs2293765 allele A): −4.60 PANSS
Beta (PANSS) (NELL1 rs4244549 allele C): −4.96 PANSS
Beta (PANSS) (NRXN1 rs11885824 allele A): −5.21 PANSS
Beta (PANSS) (NTRK2 rs1490403 allele A): −3.10 PANSS
Beta (PANSS) (NTRK2 rs1490407 allele G): −3.00 PANSS
Beta (PANSS) (NTRK2 rs4142909 allele C): −3.81 PANSS
Beta (PANSS) (NTSR2 rs7602721 allele C): −4.08 PANSS
Beta (PANSS) (PARD3B rs17283257 allele A): −3.82 PANSS
Beta (PANSS) (PCDH15 rs10825137 allele A): −4.89 PANSS
Beta (PANSS) (PCDH17 rs7319102 allele A): −3.47 PANSS
Beta (PANSS) (PCP4L1 rs6671288 allele C): −4.15 PANSS
Beta (PANSS) (PDGFD, DDI1 rs2279789 allele C): −4.42 PANSS
Beta (PANSS) (PEBP4 rs13271643 allele C): −5.41 PANSS
Beta (PANSS) (PI4KA, SERPIND1 rs78656 allele C): −7.22 PANSS
Beta (PANSS) (PKNOX2 rs1044314 allele G): −4.14 PANSS
Beta (PANSS) (PKP4 rs11680160 allele A): −4.33 PANSS
Beta (PANSS) (PRDM2 rs6429793 allele A): −3.13 PANSS
Beta (PANSS) (PSD3 rs7016207 allele C): −6.20 PANSS
Beta (PANSS) (PTPRT rs6030084 allele A): −2.96 PANSS
Beta (PANSS) (RASGEF1C rs2278661 allele C): −3.04 PANSS
Beta (PANSS) (RBFOX1 rs7194775 allele C): −4.37 PANSS
Beta (PANSS) (RIMS1 rs9446639 allele C): −3.56 PANSS
Beta (PANSS) (RNF144A rs7605141 allele C): −4.00 PANSS
Beta (PANSS) (ROBO2 rs4343667 allele C): −4.96 PANSS
Beta (PANSS) (RORA rs12910376 allele C): −3.38 PANSS
Beta (PANSS) (SCN3A rs10048748 allele C): −5.44 PANSS
Beta (PANSS) (SEC16B rs16852158 allele C): −6.45 PANSS
Beta (PANSS) (SGCZ rs10503525 allele C): −3.05 PANSS
Beta (PANSS) (SGCZ rs13278000 allele A): −2.91 PANSS
Beta (PANSS) (SLC6A5 rs1443547 allele A): −3.31 PANSS
Beta (PANSS) (SLC16A4 rs12126959 allele A): −4.16 PANSS
Beta (PANSS) (SLC16A9 rs16913940 allele A): −6.05 PANSS
Beta (PANSS) (SLC35F3 rs12759054 allele C): −3.34 PANSS
Beta (PANSS) (SPOCK1 rs1051854 allele G): −6.02 PANSS
Beta (PANSS) (WDR90 rs1057835 allele A): −3.10 PANSS
Beta (PANSS) (ZNF169 rs9409514 allele C): −3.04 PANSS

From US20160122821A1, “GENETIC MARKERS OF ANTIPSYCHOTIC RESPONSE” (SUREGENE, LLC, priority 2013, published 2016)
